Data published in ChEMBL document CHEMBL3612028, “Design, synthesis, pharmacological evaluation and molecular dynamics of β-amino acids morphan-derivatives as novel ligands for opioid receptors” (Eur J Med Chem, 2015).

Experiments:
[1] = Displacement of [3H]-diprenorphine from opioid receptor in rat brain membrane homogenates after 1 hr by liquid scintillation counting; type: cell membranes
[2] = target: Mu opioid receptor-like OR2 (Danio rerio, UniProt B8JHS2); test: Displacement of [3H]-diprenorphine from zebrafish mu opioid receptor expressed in HEK293 cells after 1 hr by liquid scintillation counting; type: cell-based
Mu opioid receptor-like OR2, sequence (B8JHS2 whole entry): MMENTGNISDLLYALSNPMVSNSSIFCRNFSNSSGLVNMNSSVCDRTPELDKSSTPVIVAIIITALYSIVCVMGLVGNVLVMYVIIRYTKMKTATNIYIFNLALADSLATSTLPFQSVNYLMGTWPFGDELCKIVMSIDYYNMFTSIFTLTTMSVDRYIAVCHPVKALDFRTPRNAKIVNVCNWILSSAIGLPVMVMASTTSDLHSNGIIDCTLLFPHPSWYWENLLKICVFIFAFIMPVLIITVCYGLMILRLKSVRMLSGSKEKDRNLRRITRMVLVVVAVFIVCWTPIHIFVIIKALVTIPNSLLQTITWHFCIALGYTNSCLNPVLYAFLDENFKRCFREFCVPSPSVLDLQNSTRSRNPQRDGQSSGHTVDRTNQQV

SMILES | Ki [1] [µM] | Ki [2] [µM]
O=C(O)[C@@H]1[C@@H]2CCC[C@H]1NCC2 | > 100 | 
COC(=O)[C@@H]1[C@@H]2CCC[C@H]1NCC2 | 17.1 | 35.3
COC(=O)[C@@H]1[C@@H]2CCC[C@H]1N(Cc1ccccc1)CC2 | 14.8 | 37
O=C(Oc1ccccc1)[C@@H]1[C@@H]2CCC[C@H]1NCC2 | 10.9 | 32
COC(=O)[C@@H]1[C@@H]2CCC[C@H]1N(CCc1ccccc1)CC2 | 2.69 | 8.24
O=C(Oc1cccc(O)c1)[C@@H]1[C@@H]2CCC[C@H]1NCC2 | 4.04 | 9.52
O=C(Oc1ccc(O)cc1)[C@@H]1[C@@H]2CCC[C@H]1NCC2 | 1.92 | 12.7
COC(=O)[C@H](Cc1ccccc1)NC(=O)[C@@H]1[C@@H]2CCC[C@H]1NCC2 | 14.8 | 78
COC(=O)[C@@H]1[C@@H]2CCC[C@H]1N(C(=O)[C@@H](N)Cc1ccccc1)CC2 | 32.9 | 75.8
